According to patent US4752614A, “Pharmaceutical compositions of tellerium and selenium compounds for the induction of in vivo and in vitro production of cytokines” (Bar-Ilan University, priority 1987, dated 1988):
Values joined by “and” are separate entries in the source; they are usually repeats but may differ in a detail not shown here. Equal values may be shown once.

Tests used:
[1] = Preliminary toxicity (LD50) in mice; format: in vivo; conditions: 6 week old mice
IL-2 [2] = experiment: Oral administration in drinking water, IL-2 content of spleen cell supernatants (Example 13); format: in vivo, male Balb-C mice; conditions: 1 μg/ml H2O, 4 days
Experimental: The water solution was prepared by dissolving the compounds in PBS at a concentration of 50 μg/ml PBS and diluting the resulting solution to the desired concentration. The compounds were administered over a 4 day period. The exact amount of liquid intake was recorded daily. […] The cells were incubated at a concentration of 10^7 cells/ml in enriched RPMI containing 2 μg/ml of con-A for 24 hours at 37° C. The supernatants were collected and tested for IL-2 content.

WNV = WNV yield in mouse macrophage cultures (Example 23); format: cell-based, ICR mouse macrophage; conditions: 72 h; for Virus Yield: preliminary
Experimental: Varying amounts of the compound of Example 1 (5 μg, 1 μg, 0.1 μg) were incubated with a monolayer of mouse macrophages for 24 h. […] All cultures were then infected with 10^4 PFU/plate. After 72 h incubation the supernatants were collected and the virus was titrated against Vera cells.

CSF = experiment: In vitro induction of colony stimulating factor (CSF) from mouse spleen cells (Example 7); format: cell-based, male Balb-c mice
Experimental: This example describes the in vitro making of IL-2 and CSF from mouse spleen cells using the compound of Example 1 as the extrinsic stimulating agent.
Spleens were removed from 15, male Balb-c mice 6 to 8 weeks of age. The spleen cells were pushed through stainless steel 60 mesh (U.S. standard) nets resting in 5 mm Petri dishes containing PBS in order to separate the cells. The cells were then collected into centrifuge tubes and spun at 1000 rpm for 10 minutes. The supernatant was discarded and cells were treated with 5 ml of hypotonic buffer (0.15M NH4 Cl; 0.01M KHCO3 dissolved in double distilled water, pH 7.2) for exactly two minutes. Thereafter, PBS was added to the cells and the test tubes were centrifuged for 10 minutes at 1000 rpm. The cells were rinsed twice and counted in a heamocytometer using trypan blue to test for viability. The cells were brought to a concentration of 10^7 viable cells/ml. The cells were contacted with varying amounts of the compound of Example 1 in 1 ml of 40% DMSO 60% PBS.

IL-2 [3] = experiment: IL-2 activity (CTLD proliferation) of Con A supernatants of spleen cells from mice injected IP (Example 3); format: in vivo, Balb-c mice
Experimental: A solution of the compound of Example 1 was prepared as follows: 5 mg was placed in a volumetric flask to which was added 100 ml of a solution of 40% dimethyl sulfoxide (DMSO) and 60% phosphate buffer saline (PBS) solution resulting in a concentration of 10 μg/0.2 ml. If the solution becomes turbid, it is centrifuged at 2000 rpm for ten minutes and the clear supernatant portion is used.
The test animals were Balb-c, male, mice, 6 to 8 weeks of age. All injections were made intraperitoneally using 0.2 ml of the solution of the compound of Example 1 using 25 gauge 5/8" hypodermic needle.
The animals received the following injections:
Each of groups a, b, c and d consisted of 21 animals. The animals were sacrificed daily from 24 h to 7 days after injection.
On each day, spleen cells from three of the animals from each control group were pooled together and processed by passing the spleen cells through a 60 mesh stainless steel net in a 5 mm Petri dish containing PBS in order to separate the cells. The cells were collected and centrifuged at 1000 rpm for 10 minutes. The supernatant was discarded and the cells were treated for two minutes with 5 ml of hypotonic buffer (0.15M NH4 Cl, 0.01M KHCO3 dissolved in double distilled water, pH 7.2) to kill the erythrocytes. Thereafter, PBS was added to the cells and the cells were centrifuged for 10 minutes at 1000 rpm. The cells were washed twice with PBS and counted in a haemocytometer using trypan blue to test for viability. The cells were brought to a concentration of 10^7 cells/ml using enriched RPMI containing 10% fetal calf serum (Ser Lab, Sussex, England); 5×10^-5 M 2-mercaptoethanol and 3% of d-glutamine (Bio Lab Israel) (stock solution 2m M×1000 nonessential amino acids) (Bio Lab, Israel) (stock solution×100) and sodium pyruvate (Bio Lab, Israel) (stock solution 1m M×100).
An additional three animals from each of the experimental groups were sacrificed and each of the spleens was processed separately using the same procedure.
The cell mixture was divided into two groups.
(a) Cells at a concentration of 10^7 cells/ml enriched RPMI to which was added concanavalin-A (CON A) (DiFCO, Batch 352) 2 μg./ml. These cells were incubated in 5 mm Petri dishes (NUNC) for 24 hours at 37° C., 7.5% CO2. Supernatants were collected, centrifuged at 1,600 rpm for 10 minutes and stored at 4° C. until used. These supernatants were assayed for IL-2 and CSF activity.
Prior to incubation of the cells, samples were removed from culture plates and smears of the cultures were made by cytocentrifugation. Slides were stained with May-Grunwald-Giemsa (1:10) solution and evaluated morphologically. A radioactive thymidine assay was used to determine IL-2 activity.
1. Supernatants were tested for IL-2 activity by the proliferation of the IL-2 dependent cell line CTLD. The IL-2 assay is based on the growth dependence of these cultured T-cell lines on IL-2. T cells harvested from IL-2 dependent culture, washed and placed back in culture in the absence of IL-2 invariably die within 24 hr. By using tritiated thymidine incorporation (^3 H-TdR) as an index of cultured T-cell replication, the IL-2 microassay provides a highly reproducible and quantitive indication of the amount of IL-2 activity in the supernatant prepared hereinabove.
2. To assay a condition medium for IL-2 activity, a sample containing 5×10^4 CTLD cells, 10% fetal calf serum and 50% of supernatant in question, all were suspended in a final volume of 1 ml RPMI. Aliquots of 0.2 ml from each sample were placed in four replicate wells of 96 microwell tissue culture plates (NUNC). Conditioned medium was obtained from cultures of Charles River rat spleen cells stimulated with Con A that contained a known amount of IL-2 as a reference in all assays.
3. The microwells were incubated for 24 hr at 37 degrees C. after which 1 microcurie/well of ^3 H-methylthymidine was added. […]

Cl[TeH]1(Cl)(Cl)OCCO1 [Example 1]
LD50 [1]: 300 μg./25 g of body weight
IL-2 content (IL-2 [2]): 49179 cpm
Percent increase as compared to control (IL-2 [2]): +50%
reduction of virus yield (WNV; 0.1 μg): ten
Virus Yield (WNV; 0.1 μg/plate): 2 × 10^3 PFU/ml
reduction of virus yield (WNV; 1 μg): 40 fold
Virus Yield (WNV; μg/plate (text: 1 μg)): 5 × 10^2 PFU/ml
CSF (CSF; 5 pg): 140 colonies/dish
CSF (CSF; 50 pg): 260 colonies/dish
CSF (CSF; 500 pg): 175 colonies/dish
CSF (CSF; 5 ng): 120 colonies/dish
CSF (CSF; 50 ng): 75 colonies/dish
CSF (CSF; 500 ng): 25 colonies/dish
CSF (CSF; 5 μg): 5 colonies/dish
CSF (CSF; 50 μg): 2 colonies/dish
IL-2 activity (IL-2 [3]; 1 μg IP, day 1, individual mouse): 25,919 CPM and 34,326 CPM and 16,718 CPM
IL-2 activity (IL-2 [3]; 1 μg IP, day 2, individual mouse): 21,398 CPM and 22,050 CPM and 9,338 CPM
IL-2 activity (IL-2 [3]; 1 μg IP, day 3, individual mouse): 10,130 CPM and 13,235 CPM and 2,176 CPM
IL-2 activity (IL-2 [3]; 1 μg IP, day 4, individual mouse): 31,999 CPM and 14,226 CPM and 17,228 CPM
IL-2 activity (IL-2 [3]; 1 μg IP, day 6, individual mouse): 41,261 CPM and 80,314 CPM and 42,485 CPM
IL-2 activity (IL-2 [3]; 1 μg IP, day 7, individual mouse): 66,854 CPM and 58,094 CPM and 51,268 CPM
IL-2 activity (IL-2 [3]; 10 μg IP, day 1, individual mouse): 24,335 CPM and 21,193 CPM and 25,381 CPM
IL-2 activity (IL-2 [3]; 10 μg IP, day 2, individual mouse): 31,901 CPM and 36,390 CPM and 22,066 CPM
IL-2 activity (IL-2 [3]; 10 μg IP, day 3, individual mouse): 20,316 CPM and 18,288 CPM and 12,126 CPM
IL-2 activity (IL-2 [3]; 10 μg IP, day 4, individual mouse): 26,644 CPM and 18,051 CPM and 65,963 CPM
IL-2 activity (IL-2 [3]; 10 μg IP, day 6, individual mouse): 22,040 CPM and 74,043 CPM and 43,838 CPM
IL-2 activity (IL-2 [3]; 10 μg IP, day 7, individual mouse): 85,216 CPM and 6,299 CPM
